{"source": "PubChem BioAssay AID651807", "about": "(Broad Institute, 2012)", "note": "Where “and” joins values, the source holds several entries; their conditions need not be identical. Equal values may be shown once. Results filed as inconclusive are left out. Calls of active or inactive are those of the source.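 The calls were made as follows: active = fitted curve rises past 40% activation at or below the top valid concentration, in every replicate test; inconclusive = replicate tests give mixed outcomes; inactive = all replicate tests inactive, or signal moves in the opposite direction.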", "data": [{"system": "ARE-bla HepG2, beta-lactamase FRET ratio 460/530", "assay": "ARE-bla reporter activation in HepG2 – cell-based, beta-lactamase, dry powder, set 4, Keap1-Nrf2 interaction inhibitor project, dose response (AID 651807)", "conditions": "not given", "units": {"AC40": "µM"}, "values": [{"smiles": "Cc1cc(C)c(S(=O)(=O)Nc2cc(C(C(=O)OCc3ccccc3)C(=O)OCc3ccccc3)c(O)c3ccccc23)c(C)c1", "AC40": 32.7}, {"smiles": "O=C(O)c1ccccc1C(=O)N1CCc2ccccc2C1CN1C(=O)c2ccccc2C1=O", "note": "(stereo not drawn)", "AC40": 41.3}, {"smiles": "Cc1ccccc1S(=O)(=O)Nc1cc(C(C(=O)OC(C)C)C(=O)C(F)(F)F)c(O)c2ccccc12", "note": "(stereo not drawn)", "AC40": 8.84}, {"smiles": "COc1ccc(CCN=C2C=C(NS(=O)(=O)c3c(C)cc(C)cc3C)c3ccccc3C2=O)cc1", "AC40": 10.6}, {"smiles": "Cc1cc(C)c(S(=O)(=O)Nc2cc(C(C(=O)OC(C)C)C(=O)C(F)(F)F)c(O)c3ccccc23)c(C)c1", "note": "(stereo not drawn)", "AC40": 4.2}, {"smiles": "Cc1ccc(S(=O)(=O)Nc2cc(C(C(=O)OC(C)C)C(=O)C(F)(F)F)c(O)c3ccccc23)c(C)c1", "note": "(stereo not drawn)", "AC40": 10.5}, {"smiles": "O=S(=O)(Nc1nc(NCC2CCCCC2)nc2ccccc12)c1ccccc1", "AC40": 32.2}, {"smiles": "O=C(O)C1CCCCC1C(=O)N1CCc2ccccc2[C@H]1C(=O)NC12CC3CC(CC(C3)C1)C2", "note": "(stereo partly drawn)", "AC40": 45.6}, {"smiles": "Cc1ccc(S(=O)(=O)NNc2nc(N3CC(O)CC3C(=O)O)nc3ccccc23)cc1", "note": "(stereo not drawn)", "AC40": 13.5}, {"smiles": "CC(C)OC(=O)C(C(=O)C(F)(F)F)c1cc(NS(=O)(=O)c2ccccc2)c2ccccc2c1O", "note": "(stereo not drawn)", "AC40": 27.2}, {"smiles": "O=C(O)C1CCCCC1C(=O)N1CCc2ccccc2C1CN1C(=O)[C@H]2CCCC[C@H]2C1=O", "note": "(stereo partly drawn)", "AC40": 29.1}, {"smiles": "Cc1cc(C)c(S(=O)(=O)Nc2nc(C(C(=O)OC(C)C)C(=O)C(F)(F)F)nc3ccccc23)c(C)c1", "note": "(stereo not drawn)", "AC40": 27.3}, {"smiles": "O=C(NCCc1ccccc1)c1ccccc1C(=O)NC[C@@H]1c2ccccc2CCN1C(=O)C1CCCCC1C(=O)O", "note": "(stereo partly drawn)", "AC40": 17}, {"smiles": "O=C1c2ccccc2C(=O)N1C[C@@H]1c2ccccc2CCN1C(=O)OCc1ccccc1", "AC40": 38.2}, {"smiles": "Cc1ccc(S(=O)(=O)Nc2cc(C(C(=O)OC(C)C)C(=O)C(F)(F)F)c(O)c3ccccc23)cc1", "note": "(stereo not drawn)", "AC40": 9.52}, {"smiles": "NC(=O)c1ccccc1C(=O)NC[C@@H]1c2ccccc2CCN1C(=O)[C@@H]1CCCC[C@@H]1C(=O)O", "AC40": 48.7}, {"smiles": "Cc1ccc(S(=O)(=O)NNc2nc(C(C(=O)OC(C)C)C(=O)C(F)(F)F)nc3ccccc23)cc1", "note": "(stereo not drawn)", "AC40": 33}]}, {"system": "not listed separately", "assay": "ARE-bla reporter activation in HepG2 – cell-based, beta-lactamase, dry powder, set 4, Keap1-Nrf2 interaction inhibitor project, dose response (AID 651807)", "conditions": "ARE-bla HepG2, beta-lactamase FRET ratio 460/530; at 16 µM (top of the series)", "values": [{"smiles": "O=C1c2ccccc2C(=O)N1CC1c2ccccc2CCN1C(=O)Cc1ccccc1", "note": "(stereo not drawn)", "activation": "14.7% (inactive)"}]}, {"system": "not listed separately", "assay": "ARE-bla reporter activation in HepG2 – cell-based, beta-lactamase, dry powder, set 4, Keap1-Nrf2 interaction inhibitor project, dose response (AID 651807)", "conditions": "ARE-bla HepG2, beta-lactamase FRET ratio 460/530; at 68 µM (top of the series)", "values": [{"smiles": "O=C(O)C1CCCCC1C(=O)N1CCCCC1CN1C(=O)c2ccccc2C1=O", "note": "(stereo not drawn)", "activation": "16.6% (inactive)"}, {"smiles": "O=C(O)c1ccccc1C(=O)NC[C@@H]1c2ccccc2CCN1C(=O)[C@@H]1CCCC[C@@H]1C(=O)O", "activation": "23.5% (inactive)"}, {"smiles": "O=C(O)C1CCCCC1C(=O)Nc1ccccc1CN1C(=O)c2ccccc2C1=O", "note": "(stereo not drawn)", "activation": "6.93% (inactive)"}, {"smiles": "O=C(NC[C@@H]1c2ccccc2CCN1C(=O)[C@@H]1CCCC[C@@H]1C(=O)O)c1ccc(CN2CCOCC2)cc1", "activation": "13.2% (inactive)"}, {"smiles": "O=C(NC[C@@H]1c2ccccc2CCN1C(=O)[C@@H]1CCCC[C@@H]1C(=O)O)c1ccccc1CO", "activation": "11% (inactive)"}, {"smiles": "O=C(O)C1CCCCC1C(=O)N1CCc2ccccc2C1CN1C(=O)c2ccccc2S1(=O)=O", "note": "(stereo not drawn)", "activation": "35% (inactive)"}, {"smiles": "O=C1c2ccccc2C(=O)N1C[C@H]1NCCc2ccccc21", "activation": "43.8% (inactive)"}, {"smiles": "O=C(Cc1ccccc1)NC[C@@H]1c2ccccc2CCN1C(=O)[C@@H]1CCCC[C@@H]1C(=O)O", "activation": "6.95% (inactive)"}, {"smiles": "O=C(O)[C@H]1CCCC[C@H]1C(=O)N1CCc2ccccc2C1CCN1C(=O)c2ccccc2C1=O", "note": "(stereo partly drawn)", "activation": "17.3% (inactive)"}, {"smiles": "Cc1ccc(S(=O)(=O)NC(=O)[C@@H]2c3ccccc3CCN2C(=O)[C@@H]2CCCC[C@@H]2C(=O)O)cc1", "activation": "13.2% (inactive) and 28.7% (inactive)"}, {"smiles": "O=C(NC[C@@H]1c2ccccc2CCN1C(=O)[C@@H]1CCCC[C@@H]1C(=O)O)c1ccccc1", "activation": "6.57% (inactive)"}, {"smiles": "O=C(O)C1CCCCC1C(=O)NCC1c2ccccc2CCN1C(=O)Cc1ccccc1", "note": "(stereo not drawn)", "activation": "20.2% (inactive)"}, {"smiles": "O=C(O)[C@H]1CCCC[C@H]1C(=O)NC(CN1C(=O)c2ccccc2C1=O)c1ccccc1", "note": "(stereo partly drawn)", "activation": "25.2% (inactive)"}, {"smiles": "O=C1c2ccccc2C(=O)N1CC1=NCCc2ccccc21", "activation": "9.14% (inactive)"}, {"smiles": "O=C(O)C1CCCCC1C(=O)N1CCc2ccccc2[C@H]1C(=O)NCCc1ccccc1", "note": "(stereo partly drawn)", "activation": "2.65% (inactive)"}, {"smiles": "Cc1cc(C)c(S(=O)(=O)Nc2nc(N(C)C)nc3ccccc23)c(C)c1", "activation": "-5.99% (inactive)"}, {"smiles": "COc1ccccc1CCNC(=O)[C@@H]1c2ccccc2CCN1C(=O)C1CCCCC1C(=O)O", "note": "(stereo partly drawn)", "activation": "-0.279% (inactive)"}, {"smiles": "COC(=O)[C@@H]1CCCC[C@@H]1C(=O)N1CCc2ccccc2[C@H]1CN1C(=O)c2ccccc2C1=O", "activation": "25.5% (inactive)"}, {"smiles": "COC(=O)CNc1nc(NS(=O)(=O)c2c(C)cc(C)cc2C)c2ccccc2n1", "activation": "-4.15% (inactive)"}, {"smiles": "O=C(O)CC(=O)N1CCc2ccccc2C1CN1C(=O)c2ccccc2C1=O", "note": "(stereo not drawn)", "activation": "31.6% (inactive)"}, {"smiles": "Cc1cc(C)c(S(=O)(=O)Nc2nc(NCCO)nc3ccccc23)c(C)c1", "activation": "-10.1% (inactive)"}, {"smiles": "O=C(NC[C@@H]1c2ccccc2CCN1C(=O)[C@@H]1CCCC[C@@H]1C(=O)O)OCC1c2ccccc2-c2ccccc21", "activation": "-31.2% (inactive)"}, {"smiles": "O=C(O)[C@@H]1CCCN1C(=O)N1CCc2ccccc2[C@H]1CN1C(=O)c2ccccc2C1=O", "activation": "27% (inactive)"}, {"smiles": "Cc1ccc(S(=O)(=O)NC[C@@H]2c3ccccc3CCN2C(=O)[C@@H]2CCCC[C@@H]2C(=O)O)c(C)c1", "activation": "29.9% (inactive)"}, {"smiles": "O=C(O)[C@H]1CCCC[C@H]1C(=O)N1CCc2ccccc2[C@H]1CNc1nc(Cl)nc2ccccc12", "activation": "-4.32% (inactive)"}]}]}
